Assay results as given in PubChem BioAssay (NCI).
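Dose response: 5 concentrations. Exposure: 48 h. Format: 96-well plates. Endpoint: linear interpolation; highest concentration if not reached. GI50: concentration for 50% inhibition of growth. At the TGI there is no net growth.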

Experiments:
Experiment in all cases: DTP human tumour cell line panel, 48 h
786-0 renal = system: 786-0 renal
A498 renal = system: A498 renal
A549 NSCLC = system: A549 NSCLC
ACHN renal = system: ACHN renal
BT-549 breast = system: BT-549 breast
CAKI-1 renal = system: CAKI-1 renal
CCRF-CEM leukemia = system: CCRF-CEM leukemia
COLO 205 colon = system: COLO 205 colon
DU-145 prostate = system: DU-145 prostate
EKVX NSCLC = system: EKVX NSCLC
HCC-2998 colon = system: HCC-2998 colon
HCT-116 colon = system: HCT-116 colon
HCT-15 colon = system: HCT-15 colon
HL-60(TB) leukemia = system: HL-60(TB) leukemia
HOP-62 NSCLC = system: HOP-62 NSCLC
HOP-92 NSCLC = system: HOP-92 NSCLC
HS 578T breast = system: HS 578T breast
IGROV1 ovarian = system: IGROV1 ovarian
K-562 leukemia = system: K-562 leukemia
KM12 colon = system: KM12 colon
LOX IMVI melanoma = system: LOX IMVI melanoma
M14 melanoma = system: M14 melanoma
MALME-3M melanoma = system: MALME-3M melanoma
MCF7 breast = system: MCF7 breast
MDA-MB-231 breast = system: MDA-MB-231 breast
MDA-MB-435 = system: MDA-MB-435
MDA-MB-468 breast = system: MDA-MB-468 breast
MOLT-4 leukemia = system: MOLT-4 leukemia
NCI-H226 lung = system: NCI-H226 lung
NCI-H23 lung = system: NCI-H23 lung
NCI-H460 lung = system: NCI-H460 lung
NCI-H522 lung = system: NCI-H522 lung
NCI/ADR-RES ovarian = system: NCI/ADR-RES ovarian
OVCAR-3 ovarian = system: OVCAR-3 ovarian
OVCAR-4 ovarian = system: OVCAR-4 ovarian
OVCAR-5 ovarian = system: OVCAR-5 ovarian
OVCAR-8 ovarian = system: OVCAR-8 ovarian
PC-3 prostate = system: PC-3 prostate
RPMI-8226 leukemia = system: RPMI-8226 leukemia
RXF 393 renal = system: RXF 393 renal
SF-268 CNS = system: SF-268 CNS
SF-295 CNS = system: SF-295 CNS
SF-539 CNS = system: SF-539 CNS
SK-MEL-2 melanoma = system: SK-MEL-2 melanoma
SK-MEL-28 melanoma = system: SK-MEL-28 melanoma
SK-MEL-5 melanoma = system: SK-MEL-5 melanoma
SK-OV-3 ovarian = system: SK-OV-3 ovarian
SN12C renal = system: SN12C renal
SNB-19 CNS = system: SNB-19 CNS
SNB-75 CNS = system: SNB-75 CNS
SR leukemia = system: SR leukemia
T-47D breast = system: T-47D breast
TK-10 renal = system: TK-10 renal
U251 CNS = system: U251 CNS
UACC-257 melanoma = system: UACC-257 melanoma
UACC-62 melanoma = system: UACC-62 melanoma
UO-31 renal = system: UO-31 renal

`COc1ccc(C(=O)Nc2sc3c(c2C#N)CCC(=O)C3)cc1C(F)(F)F` gave a GI50 (786-0 renal) of 1.82 µM, a TGI (786-0 renal) of 7.27 µM and a GI50 (A498 renal) of 5.74 µM. The TGI (A498 renal) was 36.1 µM, the GI50 (A549 NSCLC) was 2.78 µM and the TGI (A549 NSCLC) was over 100 µM. The GI50 (ACHN renal) was 0.375 µM, the TGI (ACHN renal) was 1.26 µM and the GI50 (BT-549 breast) was 0.564 µM. It also gave a TGI (BT-549 breast) of 1.92 µM, a GI50 (CAKI-1 renal) of 0.491 µM and a TGI (CAKI-1 renal) of 1.84 µM. For the same molecule, the GI50 (CCRF-CEM leukemia) was 0.27 µM, the TGI (CCRF-CEM leukemia) was over 100 µM and the GI50 (COLO 205 colon) was 0.582 µM. It also gave a TGI (COLO 205 colon) of 1.62 µM, a GI50 (DU-145 prostate) of 2.91 µM and a TGI (DU-145 prostate) of over 30.4 µM. For the same molecule, the GI50 (EKVX NSCLC) was 2.35 µM, the TGI (EKVX NSCLC) was 8.76 µM and the GI50 (HCC-2998 colon) was 1.45 µM. The TGI (HCC-2998 colon) was 3.2 µM, the GI50 (HCT-116 colon) was 0.299 µM and the TGI (HCT-116 colon) was 1.58 µM. For the same molecule, the GI50 (HCT-15 colon) was 0.385 µM, the TGI (HCT-15 colon) was 1.49 µM and the GI50 (HL-60(TB) leukemia) was 0.339 µM. For the same molecule, the TGI (HL-60(TB) leukemia) was 5.78 µM, the GI50 (HOP-62 NSCLC) was 2.65 µM and the TGI (HOP-62 NSCLC) was 8.88 µM. The GI50 (HOP-92 NSCLC) was 0.708 µM, the TGI (HOP-92 NSCLC) was 2.53 µM and the GI50 (HS 578T breast) was 0.862 µM. The TGI (HS 578T breast) was 3.68 µM, the GI50 (IGROV1 ovarian) was 1.29 µM and the TGI (IGROV1 ovarian) was 2.97 µM. For the same molecule, the GI50 (K-562 leukemia) was 0.294 µM, the TGI (K-562 leukemia) was over 100 µM and the GI50 (KM12 colon) was 0.584 µM. It also gave a TGI (KM12 colon) of 2.21 µM, a GI50 (LOX IMVI melanoma) of 0.416 µM and a TGI (LOX IMVI melanoma) of 1.65 µM. It also gave a GI50 (M14 melanoma) of 0.499 µM, a TGI (M14 melanoma) of 1.92 µM and a GI50 (MALME-3M melanoma) of 0.37 µM. For the same molecule, the TGI (MALME-3M melanoma) was 1.42 µM, the GI50 (MCF7 breast) was 0.408 µM and the TGI (MCF7 breast) was 3.15 µM. The GI50 (MDA-MB-231 breast) was 1.14 µM, the TGI (MDA-MB-231 breast) was 2.6 µM and the GI50 (MDA-MB-435) was 0.594 µM. The TGI (MDA-MB-435) was 2.06 µM, the GI50 (MDA-MB-468 breast) was 0.495 µM and the TGI (MDA-MB-468 breast) was 1.48 µM. It also gave a GI50 (MOLT-4 leukemia) of 0.322 µM, a TGI (MOLT-4 leukemia) of over 19.7 µM and a GI50 (NCI-H226 lung) of 2.31 µM. For the same molecule, the TGI (NCI-H226 lung) was 7.09 µM, the GI50 (NCI-H23 lung) was 0.537 µM and the TGI (NCI-H23 lung) was 2.71 µM. It also gave a GI50 (NCI-H460 lung) of 2.11 µM, a TGI (NCI-H460 lung) of 6.73 µM and a GI50 (NCI-H522 lung) of 0.225 µM. It also gave a TGI (NCI-H522 lung) of 0.753 µM, a GI50 (NCI/ADR-RES ovarian) of 1.3 µM and a TGI (NCI/ADR-RES ovarian) of 3.64 µM. For the same molecule, the GI50 (OVCAR-3 ovarian) was 0.845 µM, the TGI (OVCAR-3 ovarian) was 2.44 µM and the GI50 (OVCAR-4 ovarian) was 1.11 µM. The TGI (OVCAR-4 ovarian) was 2.76 µM, the GI50 (OVCAR-5 ovarian) was 1.96 µM and the TGI (OVCAR-5 ovarian) was 4.84 µM. For the same molecule, the GI50 (OVCAR-8 ovarian) was 1.28 µM, the TGI (OVCAR-8 ovarian) was 3.71 µM and the GI50 (PC-3 prostate) was 0.317 µM. For the same molecule, the TGI (PC-3 prostate) was 4 µM, the GI50 (RPMI-8226 leukemia) was 0.145 µM and the GI50 (RXF 393 renal) was 0.434 µM. For the same molecule, the TGI (RXF 393 renal) was 1.69 µM, the GI50 (SF-268 CNS) was 2.03 µM and the TGI (SF-268 CNS) was 6.6 µM. The GI50 (SF-295 CNS) was 1.79 µM, the TGI (SF-295 CNS) was 4.78 µM and the GI50 (SF-539 CNS) was 0.343 µM. For the same molecule, the TGI (SF-539 CNS) was 1.28 µM, the GI50 (SK-MEL-2 melanoma) was 1.67 µM and the TGI (SK-MEL-2 melanoma) was 4.06 µM. It also gave a GI50 (SK-MEL-28 melanoma) of 0.882 µM, a TGI (SK-MEL-28 melanoma) of 2.33 µM and a GI50 (SK-MEL-5 melanoma) of 1.35 µM. For the same molecule, the TGI (SK-MEL-5 melanoma) was 2.66 µM, the GI50 (SK-OV-3 ovarian) was 2.48 µM and the TGI (SK-OV-3 ovarian) was 6.71 µM. For the same molecule, the GI50 (SN12C renal) was 0.966 µM, the TGI (SN12C renal) was 6.19 µM and the GI50 (SNB-19 CNS) was 2.5 µM. The TGI (SNB-19 CNS) was 10.5 µM, the GI50 (SNB-75 CNS) was 1.22 µM and the TGI (SNB-75 CNS) was 3.68 µM. It also gave a GI50 (SR leukemia) of 0.339 µM, a TGI (SR leukemia) of over 100 µM and a GI50 (T-47D breast) of 0.352 µM. It also gave a TGI (T-47D breast) of 2.08 µM, a GI50 (TK-10 renal) of 1.21 µM and a TGI (TK-10 renal) of 7.6 µM. The GI50 (U251 CNS) was 0.723 µM, the TGI (U251 CNS) was 2.53 µM and the GI50 (UACC-257 melanoma) was 1.6 µM. For the same molecule, the TGI (UACC-257 melanoma) was 3.92 µM, the GI50 (UACC-62 melanoma) was 0.826 µM and the TGI (UACC-62 melanoma) was 2.21 µM. The GI50 (UO-31 renal) was 0.422 µM and the TGI (UO-31 renal) was 1.62 µM.
